From patent US9096548B2, “Pyrazine amide compounds” (Boehringer Ingelheim International GmbH, priority 2013, dated 2015) come the findings set out here.

For the test, the target named is T1, ENaC (Epithelial Sodium Channel) (Mus musculus, UniProt Q61180+Q9WU38+Q9WU39).
T1 construct: Mouse kidney M−1 cells were cultivated in DMEM; endogenous in cells; host or cells: Mouse kidney M-1 cells, cultivated with dexamethasone on transwell filters
T1 sequence (Q61180 1-699): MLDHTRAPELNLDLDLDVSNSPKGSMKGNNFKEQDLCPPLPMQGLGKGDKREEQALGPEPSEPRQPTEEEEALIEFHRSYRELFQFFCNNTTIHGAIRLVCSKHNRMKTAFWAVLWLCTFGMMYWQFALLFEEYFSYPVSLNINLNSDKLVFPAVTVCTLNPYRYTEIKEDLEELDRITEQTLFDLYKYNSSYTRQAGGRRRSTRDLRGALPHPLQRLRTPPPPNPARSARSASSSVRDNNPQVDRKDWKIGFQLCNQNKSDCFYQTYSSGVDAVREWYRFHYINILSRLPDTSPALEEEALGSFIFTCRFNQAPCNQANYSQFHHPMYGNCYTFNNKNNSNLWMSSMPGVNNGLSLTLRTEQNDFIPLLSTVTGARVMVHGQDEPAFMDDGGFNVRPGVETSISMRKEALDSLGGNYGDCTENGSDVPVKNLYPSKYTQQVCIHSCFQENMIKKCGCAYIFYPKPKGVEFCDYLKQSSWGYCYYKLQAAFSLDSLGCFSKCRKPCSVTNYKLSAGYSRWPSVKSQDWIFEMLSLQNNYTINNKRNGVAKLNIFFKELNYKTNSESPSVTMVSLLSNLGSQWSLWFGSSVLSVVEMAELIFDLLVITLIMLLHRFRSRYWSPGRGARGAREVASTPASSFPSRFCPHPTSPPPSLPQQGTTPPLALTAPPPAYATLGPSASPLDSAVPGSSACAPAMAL
T1 sequence (Q9WU38 1-638): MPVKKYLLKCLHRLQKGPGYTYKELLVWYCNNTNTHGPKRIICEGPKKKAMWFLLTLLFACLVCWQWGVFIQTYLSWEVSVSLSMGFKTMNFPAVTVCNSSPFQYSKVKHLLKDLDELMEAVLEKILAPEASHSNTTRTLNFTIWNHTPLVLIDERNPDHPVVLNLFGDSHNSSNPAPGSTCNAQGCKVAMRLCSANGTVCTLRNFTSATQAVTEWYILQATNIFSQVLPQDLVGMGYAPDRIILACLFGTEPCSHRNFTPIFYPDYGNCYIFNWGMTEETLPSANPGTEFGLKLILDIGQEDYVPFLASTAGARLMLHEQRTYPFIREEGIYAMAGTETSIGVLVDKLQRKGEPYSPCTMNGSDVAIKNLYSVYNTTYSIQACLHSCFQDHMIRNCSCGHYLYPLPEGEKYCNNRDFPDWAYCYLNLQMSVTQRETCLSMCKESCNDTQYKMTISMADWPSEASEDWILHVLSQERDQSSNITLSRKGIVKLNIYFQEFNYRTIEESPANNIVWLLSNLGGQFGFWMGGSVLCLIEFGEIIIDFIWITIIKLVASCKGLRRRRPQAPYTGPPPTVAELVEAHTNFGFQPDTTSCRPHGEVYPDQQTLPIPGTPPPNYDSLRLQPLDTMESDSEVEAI
T1 sequence (Q9WU39 1-655): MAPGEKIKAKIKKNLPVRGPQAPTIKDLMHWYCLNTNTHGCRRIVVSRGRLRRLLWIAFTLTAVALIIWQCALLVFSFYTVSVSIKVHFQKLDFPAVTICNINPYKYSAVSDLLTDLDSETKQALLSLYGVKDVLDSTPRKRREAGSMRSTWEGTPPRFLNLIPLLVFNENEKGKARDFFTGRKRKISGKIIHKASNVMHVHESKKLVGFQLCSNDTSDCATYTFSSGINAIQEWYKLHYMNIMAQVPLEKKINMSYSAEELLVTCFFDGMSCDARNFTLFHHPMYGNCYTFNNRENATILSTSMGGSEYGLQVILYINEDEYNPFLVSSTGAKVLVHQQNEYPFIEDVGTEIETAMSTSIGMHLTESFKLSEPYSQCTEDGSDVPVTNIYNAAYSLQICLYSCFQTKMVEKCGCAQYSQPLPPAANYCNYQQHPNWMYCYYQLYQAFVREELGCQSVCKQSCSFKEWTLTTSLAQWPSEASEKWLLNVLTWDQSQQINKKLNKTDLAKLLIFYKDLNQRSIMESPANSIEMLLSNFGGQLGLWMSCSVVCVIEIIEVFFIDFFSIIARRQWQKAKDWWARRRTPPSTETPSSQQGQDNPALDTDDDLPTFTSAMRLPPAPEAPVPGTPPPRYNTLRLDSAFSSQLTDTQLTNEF
Description: Ussing Chamber assay (short circuit current, amiloride sensitive I_SC). Type of test: cell-based. Particulars: Ussing chamber, mouse kidney M-1 cells, short circuit current, compound added to the apical solution; read-out: IC50. Put shortly: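 Mouse kidney M-1 cells grown 10–12 days on filters with 5 μM dexamethasone, measured in Caco-2 transport buffer at 37° C under voltage clamp. Compound applied apically at 3 μM or 1-3-10 μM; 3 μM amiloride added at end. Short circuit current inhibition given as percent of amiloride effect or IC50.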

As to `Nc1nc(N)c(C(=O)N[C@H]2CCC[N+](CCCc3ccc(OCC(=O)N4CCN(CCO)CC4)cc3)(CCCc3ccc(OCC(=O)N4CCN(CCO)CC4)cc3)C2)nc1Cl` [Example 6.54], the IC50 (usually the concentration that inhibits the measured activity by half) came to 98 nM.

In the case of `CN1CCN(C(=O)COc2ccc(CCC[N+]3(CCCc4ccc(OCC(=O)N5CCN(C)CC5)cc4)CCC[C@H](NC(=O)c4nc(Cl)c(N)nc4N)C3)cc2)CC1` [Example 6.53], the half-inhibitory concentration (IC50) came out at 39 nM.
